Tested on: human megakaryocyte progenitors (CFU-Mk)
Test: Human megakaryocyte progenitor CFC proliferation (CFU-Mk) in normal bone marrow
Assay type: cell-based
Details: for % Control CFU-Mk Total @ 10 uM dose: 3-point dose response; for IC50: Homo sapiens, 6-point dose response, top concentration 20 μM, read-out: CFU-Mk Total IC50
Method: Compounds were tested to evaluate the potential effects on human megakaryocyte progenitor proliferation in the CFU-Mk assay. Clonogenic progenitors of the human megakaryocyte (CFU-Mk) lineage were assessed in a semi-solid, collagen-based matrix containing rhIL-3 (10 ng/mL), rhIL-6 (10 ng/mL) and rhTpo (50 ng/mL).
Normal human bone marrow light density cells (lot #0170525), derived from normal bone marrow (NorCal Biologics, California), were stored at −152° C. until required for the assay. On the day of the experiment, the cells were thawed rapidly, the contents of each vial was diluted in 10 mL of Iscove's modified Dulbecco's medium containing 10% fetal bovine serum (IMDM+10% FBS) and washed by centrifugation (approximately 1200 r.p.m. for 10 minutes, room temperature). The supernatant was discarded and the cell pellets resuspended in a known volume of IMDM+10% FBS. A cell count (3% glacial acetic acid) and viability assessment (trypan blue exclusion test) was performed for the bone marrow sample.
All compounds were used as solutions in DMSO at 10 mM. Two different dosing paradigms were used depending on the study, either a six point dose response with top concentration of 20 μM, or a three point dose response with a top concentration of 10 μM. In six point dose response studies, compounds were tested at six distinct concentrations (20, 6.7, 2.2, 0.74, 0.25 and 0.082 μM), with serial dilutions prepared from the 10 mM stock concentration to achieve concentrations of 6.7, 2.2, 0.74, 0.25 and 0.082 mM. When added to the collagen-based media at 1:1000 (v/v), the final desired test concentrations were achieved. In order to generate the 20 μM final concentration, 8 μL of the 10 mM stock was added to the appropriately labeled tube. For the three point dose response studies, serial dilutions were prepared from the stock concentration to achieve concentrations of 2 and 0.4 mM. When added to the collagen-based media at 1:1000 (v/v), the final test concentrations of 10, 2 and 0.4 μM were achieved.
Clonogenic progenitors of the human megakaryocytic (CFU-Mk) lineages were set up in the media formulation described above. All compounds were added to the medium to give the final desired concentrations (20, 6.67. 2.22, 0.74, 0.25, and 0.082 μM). Solvent control cultures (containing no compound but 0.2% DMSO), as well as a standard control (containing no compound and no DMSO), were also initiated.
Human megakaryocyte progenitor assays were initiated with 1.8×10^5 cells per culture (lot #0170525). Following 14-16 days in culture, the cultures were transferred from the 35 mm dishes to labeled glass slides, were fixed (methanol/acetone) and then stained using an anti-human CD41 antibody and an alkaline phosphate detection system according to manufacturers' instructions. The colonies were assessed microscopically and scored by trained personnel and divided into the following categories based on size; CFU-Mk (3-20), CFU-Mk (21-49), CFU-Mk (≥50).
The mean±1 standard deviation of three replicate cultures was calculated for the progenitors. Two-tailed standard t-tests were performed to assess if there was a difference in the number of colonies generated between solvent control and treated cultures. Due to the potential subjectivity of colony enumeration, a p value of less than 0.01 is deemed significant. To calculate the concentration of 50% inhibition of colony growth (IC50) for each compound, a dose response curve was generated plotting the log of the compound concentration versus the percentage of control colony growth using Graphpad Prism 7.
Megakaryocyte colony enumeration was performed by trained personnel. In addition, the distribution of colony types as well as general colony and cellular morphology was analyzed. The variance in colony number detected in replicate cultures was representative of the historical coefficient of variation for colony enumeration using these types of assays. […]

Compound	% Control CFU-Mk Total @ 10 uM dose	IC50
CCc1ncc2c(n1)CN(C(=O)Nc1nc(-c3ccc(F)cc3)ccc1N)C2 [Compound 17]	28%	–
CCc1ncc2c(n1)CN(C(=O)Nc1nc(-c3cccs3)ccc1N)C2 [Compound 3]	–	2 µM
COCCn1cc2c(n1)CN(C(=O)Nc1nc(-c3ccc(F)cc3F)ccc1N)C2 [Compound 9]	–	10.8 µM
Cc1ncc(-c2ccc(N)c(NC(=O)N3Cc4cn(CC(F)F)nc4C3)n2)s1 [Compound 5]	36%	–
Cc1ncc2c(n1)CN(C(=O)Nc1nc(-c3ccc(F)cc3)ccc1N)C2 [Compound 14]	31%	–
Cc1cc2c(cn1)CN(C(=O)Nc1nc(-c3cccnc3)ccc1N)C2 [Compound 12]	–	> 20 µM
Cc1ncc2c(n1)CN(C(=O)Nc1nc(-c3ccc(F)s3)ccc1N)C2 [Compound 2]	–	2 µM

From US10793567B2, “Bicyclic inhibitors of histone deacetylase” (Rodin Therapeutics, Inc., priority 2017, dated 2020)
